PMC12114169, “Synthesis, Characterisation, Biological Evaluation and In Silico Studies of Quinoline–1,2,3-Triazole–Anilines as Potential Antitubercular and Anti-HIV Agents” (Molecules, 2025)
≈ marks a conversion by molar mass, not a printed value. Where “and” joins values, the source holds several entries; their conditions need not be identical. Equal entries are not always repeated. Where two headings read alike, the source gives them in different places.

Tests used:
[1] = tested on: Mtb H37Rv (ATCC 27294) strain; experiment: Antimycobacterial micro broth dilution (resazurin) assay; format: cell-based, Mycobacterium tuberculosis; details: 7 days, read-out: Anti-Mtb H37Rv MIC90
[2] = MTT cytotoxicity evaluation; details: human, Cytotoxicity CC50 TZM-bl Cell Line, MTT assay
[3] = tested on: HIV-1 subtype B (NL4.3 virus); experiment: Luciferase-based antiviral assay in TZM-bl cells; details: for SI (CC50/IC50): selectivity index, TZM-bl CC50 / HIV-1 IC50
TZM-bl cell line = experiment: MTT cytotoxicity evaluation; details: read-out: Cytotoxicity CC50 TZM-bl Cell Line; MTT assay
Mtb = tested on: Mtb; set-up: method as in PMID 21489660; details: antitubercular activity; cited from earlier work
[4] = target: HIV reverse transcriptase; set-up: method as in PMID 30370848; details: cited from earlier work
[5] = Mycobacterium tuberculosis, 168 h
[6] = Human immunodeficiency virus 1, TZM-bl, 48 h, read-out: Anti-HIV HIV-1 Subtype B IC50, NL4.3 virus in TZM-bl cells, 48 h, luciferase
[7] = read-out: Anti-HIV HIV-1 Subtype B IC50, NL4.3 virus in TZM-bl cells, 48 h, luciferase

For `C#CCNc1ccccc1` [Compound 10a, N-2-propyl-1-yl-benzanamine], the MIC90 [1, 5] was 3810 µM (≈ 500 µg/mL).

For `Clc1ccc2c(-n3cc(CNc4ccc(I)cc4)nn3)ccnc2c1` [Compound 11c, [1-(7-Chloro-4-quinolinyl)-1H-1,2,3-triazole-4-methyl]-4-iodoaniline], the CC50 [2] was 157 µM, the MIC90 [1, 5] was 1080 µM (≈ 501 µg/mL) and the IC50 [3, 6] was 23.2 µM. The “SI (CC50/IC50)” value [3] was 6.76.

`Clc1ccc2c(-n3cc(CNc4ccccc4)nn3)ccnc2c1` [Compound 11a] showed a CC50 [2] of over 100 µM, a CC50 (TZM-bl cell line) of 177 µM and an MIC90 [1, 5] of 187 µM (≈ 62.6 µg/mL). The IC50 [3, 6] was 3.01 µM and the “SI (CC50/IC50)” value [3] was 58.75.

Compound `FC(F)(F)c1ccccc1NCc1cn(-c2ccnc3cc(Cl)ccc23)nn1` [Compound 11g, [1-(7-Chloro-4-quinolinyl)-1H-1,2,3-triazole-4-methyl]-2-triflouromethylaniline] has an MIC90 [1, 5] of 155 µM (≈ 62.6 µg/mL), an IC50 [3, 6] of 0.388 µM and an IC50 [3, 7] of 0.388 µM. For the same compound, the “SI (CC50/IC50)” value [3] was 11,367.49.

In the case of `COc1ccc2nccc(-n3cc(CNC(C)=O)nn3)c2c1` [Compound 1], the MIC (Mtb) is given as 0.625 µg/mL (≈ 2.1 µM).

Compound `Fc1cccc(NCc2cn(-c3ccnc4cc(Cl)ccc34)nn2)c1` [Compound 11h, [1-(7-Chloro-4-quinolinyl)-1H-1,2,3-triazole-4-methyl]-3-flouroaniline] has a CC50 [2] of 25.5 µM, an MIC90 [1] of 88.72 µM (≈ 31.4 µg/mL) and an MIC90 [1, 5] of 88 µM (≈ 31.1 µg/mL). The IC50 [3, 6] was 0.0103 µM, the IC50 [3, 7] was 0.0103 µM and the “SI (CC50/IC50)” value [3] was 2472.87.

In the case of `Clc1ccc2c(-n3cc(CNc4ccc(Br)cc4)nn3)ccnc2c1` [Compound 11b, [1-(7-Chloro-4-quinolinyl)-1H-1,2,3-triazole-4-methyl]-4-bromoaniline], the CC50 [2] is reported as 0.248 µM, the MIC90 [1, 5] is reported as 1210 µM (≈ 502 µg/mL) and the IC50 [3, 6] is reported as 124 µM. The “SI (CC50/IC50)” value [3] was 1.994 × 10^−3.

For `Fc1ccc(NCc2cn(-c3ccnc4cc(Cl)ccc34)nn2)cc1` [Compound 11d, [1-(7-Chloro-4-quinolinyl)-1H-1,2,3-triazole-4-methyl]-4-flouroaniline], the CC50 [2] was 1320 µM, the MIC90 [1, 5] was 177 µM (≈ 62.5 µg/mL) and the “Anti-HIV HIV-1 Subtype B IC50” value ([3]; NL4.3 virus in TZM-bl cells, 48 h, luciferase) was “DNC *”.

With `O=[N+]([O-])c1cccc(NCc2cn(-c3ccnc4cc(Cl)ccc34)nn2)c1` [Compound 11i, [1-(7-Chloro-4-quinolinyl)-1H-1,2,3-triazole-4-methyl]-3-nitroaniline] the CC50 [2] was 0.00901 µM, the IC50 [3, 6] was 0.17 µM and the IC50 [3, 7] was 0.167 µM. For the same compound, the “SI (CC50/IC50)” value [3] was 0.05.

For `Cc1cn([C@H]2C[C@H](N=[N+]=[N-])[C@@H](CO)O2)c(=O)[nH]c1=O` [AZT, azidothymidine, reference compound], the CC50 [2] was 1120 µM, the IC50 [3, 6] was 0.0909 µM and the “SI (CC50/IC50)” value [3] was 12,349 and 12,349.59.

For `COc1ccc2nccc(-n3cc(CN4CCN(C(C)=O)CC4)nn3)c2c1` [Compound 3], the MIC (Mtb) is given as 0.625 µg/mL (≈ 1.71 µM).

Work on `COc1ccc(NCc2cn(-c3ccnc4cc(Cl)ccc34)nn2)cc1` [Compound 11j, [1-(7-Chloro-4-quinolinyl)-1H-1,2,3-triazole-4-methyl]-4-methoxyaniline] yielded a CC50 [2] of 4 µM, an MIC90 [1, 5] of 1370 µM (≈ 501 µg/mL) and an IC50 [3, 6] of 180 µM. For the same compound, the “SI (CC50/IC50)” value [3] was 0.02.

Compound `CC[C@@H](CO)NCCN[C@@H](CC)CO` [Ethambutol, reference compound] has an MIC90 [1, 5] of 9.68 µM (≈ 1.98 µg/mL).

`Clc1cccc(NCc2cn(-c3ccnc4cc(Cl)ccc34)nn2)c1` [Compound 11e, [1-(7-Chloro-4-quinolinyl)-1H-1,2,3-triazole-4-methyl]-3-chloroaniline] showed a CC50 [2] of 835 µM, an MIC90 [1, 5] of 169 µM (≈ 62.5 µg/mL) and an IC50 [3, 6] of 714 µM. The “SI (CC50/IC50)” value [3] was 1.17.

Compound `[N-]=[N+]=Nc1ccnc2cc(Cl)ccc12` [Compound 7, 4-azido-7-chloroquinoline] has an MIC90 [1, 5] of 19.1 µM (≈ 3.91 µg/mL).

In the case of `O=C1O[C@](C#CC2CC2)(C(F)(F)F)c2ccccc2N1Cc1cn(-c2ccnc3cc(Cl)ccc23)nn1` [Compound 5], the IC50 [4] is given as 0.8 µM.

In the case of `COc1ccc(S(=O)(=O)NCc2cn(-c3ccnc4ccc(OC)cc34)nn2)cc1` [Compound 2], the MIC (Mtb) is listed as 0.625 µg/mL (≈ 1.47 µM).
